In the experiment the target is Diazepam Receptor. The experiment is described as follows: Diazepam Receptor Binding Assay in vitro (tritiated diazepam, rat fore-brain membranes). Particulars: membranes from rat fore-brain, 0°-5°, pH=7.5, determined graphically; read-out: IC50, concentration required to inhibit the specific binding of 2 nM of tritiated diazepam by 50%. On the procedure: The anxiolytic effects of said new compounds can also be estimated by the Diazepam Receptor Binding Assay in vitro, e.g. as described in Nature 266, 732 (1977) or Proc. Nat. Acad. Sci. USA 74, 3805 (1977). Diazepam binds specifically and with high affinity to crude synaptosomal membrane preparations from rat fore-brain. […] When tritiated diazepam is used, the interaction of other drugs with said receptor can be readily assessed thus: Membranes from rat fore-brain are incubated at 0°-5° with tritiated diazepam and various concentrations of the test substances in a physiological medium at the pH=7.5. The membranes, containing the receptors with various amounts of tritiated diazepam, are filtered onto glass fiber filters, which are then […] in a liquid scintillation counter.

On to `CNC1=Nc2ccc(Cl)cc2C(c2ccccc2)=[N+]([O-])C1` [chlordiazepoxide], for which the IC50 was found to be 400 nM.
As to `CN1C(=O)CN=C(c2ccccc2)c2cc(Cl)ccc21` [diazepam], the IC50 turned out to be 5 nM.

The values above are taken from patent US4312870A, “Pyrazoloquinolines” (Ciba-Geigy Corporation, priority 1980, dated 1982).
